Laboratory results: US20080317857A1, “V-Atpase Inhibitors of Use in the Treatment of Septic Shock” (Brane Discovery S.r.l., priority 2005, published 2008)

What was measured:
PMNs = assay: Chemoattractant-induced rapid adhesion of PMNs to fibrinogen (CR3 ligand); type: cell-based; settings: Homo sapiens, read-out: Inhibition of Adhesion (%) PMNs (fMLP) (converted); for inhibition at 25 µM: [cpd] 25 μM; for inhibition at 50 µM: [cpd] 50 μM; for inhibition at 100 µM: [cpd] 100 μM
Procedure: (§1) Adhesion was performed on purified integrin ligands and was evaluated as reported in Constantin G. et al., Immunity, 16, 759-769, 2000. Briefly, primary naïve lymphocytes, polymorphonuclear neutrophils (PMNs) or monocytes were isolated form healthy donors. In other experiments, murine autoreactive T cells were obtained from SJL mice immunized with PLP139-151 as described (Piccio L. et al., J. Immunol. 168, 1940-1949, 2002). Cells were resuspended at 4×10^6/ml in PBS, CaCl2, MgCl2 1 mM, 10% FCS, pH 7.2. Adhesion assays were performed on eighteen well glass slides coated overnight at 4° C. with ligands for CR3 (fibrinogen) or LFA-1 (ICAM-1). 20 μl of cell suspension were added to the wells and stimulated at 37° C. with 5 μl of agonists prior to washing, fixation and computer-assisted enumeration of bound cells.
(§2) Integrin activation was measured as induction of rapid adhesion triggered by the classical chemoattractant N-formyl-L-methionyl-L-leucyl-phenylalanine (fMLP) (100 nM) or by the CC chemokine MIP3β (CCL19, 1 μM). PMNs and monocytes were triggered to adhere to fibrinogen (CR3 ligand); naive human lymphocytes or murine encephalitogenic T cells were triggered to adhere to ICAM-1 (LFA-1 ligand). Triggered adhesion was evaluated after 2 min of stimulation under static conditions. The cells were pretreated at 37° C. for 30-60 min with the indicated concentrations of the test compound. Results are expressed as percentage of inhibition over control (=100%) and are the mean of three experiments in the case of human leukocytes. Results are expressed as mean counts and are the mean counts±S.D of three experiments and are the mean of three experiments in the case of murine encephalitogenic lymphocytes.
(§3) Integrin activation was measured as induction of rapid adhesion triggered by the “classical” chemoattractant fMLP (100 nM) or by the CC chemokine MIP3β(CCL19, 1 μM). PMNs were triggered to adhere to fibrinogen (CR3 ligand); lymphocytes were triggered to adhere to ICAM-1 (LFA-1 ligand).

Lymphocytes = assay: Chemokine-induced rapid adhesion of lymphocytes to ICAM-1 (LFA-1 ligand); type: cell-based; settings: Homo sapiens, Lymphocyte, read-out: Inhibition of Adhesion (%) Lymphocytes (MIP3-β) (converted); for inhibition at 25 µM: [cpd] 25 μM; for inhibition at 50 µM: [cpd] 50 μM; for inhibition at 100 µM: [cpd] 100 μM
Procedure: as §1, §2, §3

[1] = test system: encephalitogenic lymphocytes; assay: Chemokine-induced adhesion of murine encephalitogenic T cells to ICAM-1; type: cell-based, murine (SJL mice); settings: NT control in the same cell
Procedure: as §1, §2
Chemokines trigger rapid arrest of lymphocytes in blood vessels through pertussis toxin-sensitive G protein coupled receptors. […] Autoreactive lymphocytes were then stimulated with 1 μM CCL19 (MIP-3beta) for 3 min.

Row | SMILES | inhibition at 25 µM (PMNs) | inhibition at 50 µM (PMNs) | inhibition at 100 µM (PMNs) | inhibition at 25 µM (Lymphocytes) | inhibition at 50 µM (Lymphocytes) | inhibition at 100 µM (Lymphocytes) | Chemokine-induced Adhesion in encephalitogenic lymphocytes, Mean counts ± S.D., in absence of MIP3-β stimulation ([1]; [cpd] 5 μM) | Chemokine-induced Adhesion in encephalitogenic lymphocytes, Mean counts ± S.D., in presence of MIP3-β stimulation ([1]; [cpd] 5 μM) | Chemokine-induced Adhesion in encephalitogenic lymphocytes, Mean counts ± S.D., in absence of MIP3-β stimulation ([1]; [cpd] 50 μM) | Chemokine-induced Adhesion in encephalitogenic lymphocytes, Mean counts ± S.D., in presence of MIP3-β stimulation ([1]; [cpd] 50 μM) | Chemokine-induced Adhesion in encephalitogenic lymphocytes, Mean counts ± S.D., in absence of MIP3-β stimulation ([1]; [cpd] 1 μM) | Chemokine-induced Adhesion in encephalitogenic lymphocytes, Mean counts ± S.D., in presence of MIP3-β stimulation ([1]; [cpd] 1 μM)
1 | COc1ccc(-c2c3n(c4cc(OC)c(OC)cc24)CCOC3)cc1 [Example 76] | 25.6% | 35.7% | 66.3% | 30.1% | 40.3% | 48.3% |  |  |  |  |  | 
2 | COCCn1c(C(=O)OC)c(-c2ccc(OC)cc2)c2cc(OC)c(OC)cc21 [Example 39] | 33.8% | 39.1% | 44.8% | 8.2% | 26.4% | 41.4% | 72.9 ± 8.8 | 118.2 ± 10.0 | 44.8 ± 1.9 | 104.4 ± 5.0 |  | 
3 | COc1ccc(-c2c(-c3nnco3)[nH]c3cc(OC)c(OC)cc23)cc1 [Example 26] | 34.7% | 50.5% | 57.5% | 8.7% | 21.9% | 26.7% | 93.1 ± 7.5 | 125.9 ± 7.2 | 49.8 ± 5.9 | 98.9 ± 12.0 |  | 
4 | COc1ccc(-c2c(C#N)n(CCN3CCOCC3)c3cc(OC)c(OC)cc23)cc1 [Example 56] | 3.4% | 11.6% | 8.7% | 0% | 12.6% | 72.8% | 64.1 ± 9.9 | 92.3 ± 2.3 | 49.7 ± 3.9 | 79.4 ± 12.1 |  | 
5 | CCOC(=O)c1[nH]c2cc(OC)c(OC)cc2c1-c1ccncc1 [Example 81] | 14.4% | 0.8% | 0% | 4.5% | 12.7% | 34.9% | 56.2 ± 11.1 | 84.5 ± 8.8 | 41.3 ± 3.6 | 99.2 ± 5.0 |  | 
6 | COC(=O)c1c(-c2ccc(OC)cc2)c2cc(OC)c(OC)cc2n1CCN1CCCC1 [Example 52] | 0.8% | 11% | 6.1% | 45.9% | 53.5% | 58.9% | 31.8 ± 3.1 | 103.2 ± 10.2 | 24.9 ± 12.8 | 82.3 ± 8.1 | 51.9 ± 3.9 | 118.9 ± 4.0
7 | COc1ccc(-c2c(C(N)=O)[nH]c3cc(OC)c(OC)cc23)cc1 [Example 14] | 62.8% | 83.9% | 94.9% | 30.9% | 70.9% | 91.8% |  |  |  |  |  | 
8 | COc1ccc(-c2c3n(c4cc(OC)c(OC)cc24)CCN(S(=O)(=O)C(C)C)C3)cc1 [Example 68] |  |  |  |  |  |  | 62.3 ± 9.0 | 102.8 ± 5.5 | 33.5 ± 6.0 | 74.3 ± 3.9 |  | 
9 | CCCn1c(C#N)c(-c2ccccc2)c2cc(OC)c(OC)cc21 [Example 50] |  |  |  |  |  |  | 81.7 ± 11.9 | 124.5 ± 8.1 | 62.0 ± 4.0 | 92.0 ± 3.0 |  | 
10 | COc1ccc(-c2c3n(c4cc(OC)c(OC)cc24)CCNC3)cc1 [Example 28] | 34.7% | 41% | 46.5% | 16.7% | 34.8% | 49.1% | 75.7 ± 9.0 | 127.0 ± 5.0 | 48.6 ± 2.9 | 118.8 ± 10.8 |  | 
